Tested on: Abeta oligomer-induced membrane trafficking deficits in primary hippocampal neurons
Assay: Membrane Trafficking/Exocytosis (MTT) assay, Abeta oligomer effect on neurons;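 on EC50 Abeta: compound potency for inhibiting the Abeta oligomer effect on exocytosis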
Type: cell-based, rat
Conditions: AD brain-derived Abeta oligomers
Procedure: Compounds according to any embodiment described herein, were tested for their ability to inhibit an amyloid beta effect on the cells. The compounds generally were able to inhibit the amyloid beta effect as measured by a membrane trafficking/exocytosis assay (MTT assay). The rationale for this assay was as follows:
The present exocytosis assay was adapted for use with mature primary neuronal cultures grown for 3 weeks in vitro. See WO 2011/106785, which is incorporated herein by reference in its entirety. Abeta oligomers cause a dose-dependent decrease in the amount of intracellular vesicles (puncta) filled with reduced purple formazan as measured via image processing using a Cellomics VTI automated microscopy system. […] Increasing the amount of Abeta oligomers eventually results in overt toxicity. Thus, the concentration of neuroactive Abeta oligomers used in the assay is much lower than that causing cell death. […] When configured in this manner, the assay is able to detect compounds that inhibit nonlethal effects of Abeta oligomer whether these compounds act via disruption of oligomers, inhibition of oligomer binding to neurons, or counteraction of signal transduction mechanisms of action initiated by oligomer binding.
Primary hippocampal neurons from E18 Sprague-Dawley rat embryos were plated at optimized concentrations in 384 well plates in NB media (Invitrogen). Neurons were maintained in cultures for 3 weeks, with twice weekly feeding of NB media with N2 supplement (Invitrogen).
A test compound was added to cells at concentrations ranging from 100 uM to 0.001 nM followed by addition of vehicle or Abeta oligomer preparations (3 μM total Abeta protein concentration), and incubated for 1 to 24 hr at 37° C. in 5% CO2. MTT reagent (3-(4,5-dimethylthizaol-2yl)-2,5diphenyl tetrazolium bromide) (Roche Molecular Biochemicals) was reconstituted in phosphate buffered saline to 5 mg/mL. 10 μL of MTT labeling reagent is added to each well and incubated at 37° C. for 1 h, then imaged. Exocytosis was assessed by automated microscopy and image processing to quantify the amount of endocytosed and exocytosed formazan.
Each assay plate was formatted so that compounds are tested with and without Abeta oligomer on each plate. This design eliminates toxic or metabolically active compounds early on in the screening cascade (at the level of the primary screen). Reduced formazan was first visible in intracellular vesicles. Eventual formazan exocytosis was accelerated via Abeta oligomers.
Human amyloid peptide 1-42 was obtained from a number of commercial vendors such as California Peptide, with lot-choice contingent upon quality control analysis. Quality controls of oligomer preparations consist of Westerns to determine oligomer size ranges and relative concentrations, and the MTT assay to confirm exocytosis acceleration without toxicity. Toxicity was monitored in each image-based assay via quantification of nuclear morphology visualized with the DNA binding blue dye DAPI (Invitrogen). Nuclei that are fragmented are considered to be in late stage apoptosis (Majno and Joris '95) and the test would be rejected. Peptide lots producing unusual peptide size ranges or significant toxicity at a standard 1.5 μM concentration on neurons would also be rejected.
Data handling and analysis were accomplished by Cellomics VTI image analysis software and STORE automated database software. Because of the low dynamic range and neuronal well-to-well variability after three weeks in culture, statistical comparisons are made via pairwise Tukey-Kramer analysis to determine the significance of the separation between compound+Abeta oligomers from Abeta alone, and between compound alone from vehicle. The ability of mature primary neurons to more closely approximate the electrophysiologically mediated signal transduction network of the adult brain justifies this screening strategy. […]

For `COc1cc(CCC(C)NCc2ccc(C(F)(F)F)cc2)ccc1O` (stereo not drawn) [4-(3-(4-(trifluoromethyl)benzylamino)butyl)-2-methoxyphenol, reference compound], the “effect on membrane trafficking deficits induced by AD brain-derived Abeta oligomers” value was “eliminates the membrane trafficking deficits”.

Same assay, conditions: Abeta oligomers dosed alone on neurons; read-out: EC50 in the membrane trafficking assay

“Synthetic Abeta oligomers: Abeta 1-42 oligomers made according to published methods, used as positive controls [reference compound]” gave an EC50 of 0.82 µM.

Same assay, conditions: membrane trafficking; read-out: EC50 Abeta

In order of rising EC50:
1. CC(C)=CC(CC(C)(C)c1ccc(Cl)cc1)N1CCC(OC(C)C)CC1 (stereo not drawn) [Compound 158]  2.88 µM
2. CC(CC(C)(C)c1ccc(Cl)cc1)N1CCC(O)C1 (stereo not drawn) [Compound 255]  15 µM
3. CC(C)=CC(CC(C)(C)c1ccc(Cl)cc1)N1CCC(c2ccnc(N(C)C)c2)CC1 (stereo not drawn) [Compound 90]  20 µM
4. CC(C)=CC(CC(C)(C)c1ccc(N2CCOCC2)cc1)N1CCC(O)CC1 (stereo not drawn) [Compound 150]  20 µM
5. COCCCC1CCN(C(C=C(C)C)CC(C)(C)c2ccc(N3CCOCC3)cc2)CC1 (stereo not drawn) [Compound 140]  20 µM

Same assay, conditions: substance alone, no Abeta oligomer

In the case of `COc1cc(CCC(C)NCc2ccc(C(F)(F)F)cc2)ccc1O` (stereo not drawn) [4-(3-(4-(trifluoromethyl)benzylamino)butyl)-2-methoxyphenol, reference compound], the “effect on trafficking when dosed in the absence of Abeta” value is reported as “does not affect trafficking”.

Tested on: not listed separately
Assay: log P
Type: physicochemical
Conditions: not given
Source text: The term “log P” refers to the partition coefficient of a compound. The partition coefficient is the ratio of concentrations of un-ionized compound in each of two solution phases, for example, octanol and water. To measure the partition coefficient of ionizable solute compounds, the pH of the aqueous phase is adjusted such that the predominant form of the compound is un-ionized. The logarithm of the ratio of concentrations of the un-ionized solute compound in the solvents is called log P. The log P is a measure of lipophilicity. For example, log Poct/wat=log([solute]octanol/[solute]un-ionized,water).
Combined Results for particular compounds described herein, with respect to log P, membrane trafficking (uM), sigma-2 receptor affinity, sigma-1 receptor affinity microsomal stability in mouse liver microsomes (MLM) (t1/2, min), t1/2 normalized to CT)10914 and in vitro toxicity potassium channel hERG (IC50, nM) are provided in Table 1: […]

In order of rising “log P” value:
1. COc1cc(CCC(C)(C)N2Cc3cccc(C(=O)N4CCN(C(=O)[C@@H]5CCCN5)CC4)c3C2)ccc1O [Compound 260]  2.46
2. COc1cc(CCC(C)(C)N2Cc3cccc(C(=O)N4CCN(C(=O)[C@@H]5CCCN5C(C)=O)CC4)c3C2)ccc1O [Compound 282]  2.47
3. CC1(O)CCN(CCC(C)(C)c2ccccc2)CC1 [Compound 296]  2.83
4. CC(C)(CCN1CCC(CO)CC1)c1ccccc1 [Compound 308]  3.01
5. COc1cc(CCC(C)(C)N2Cc3cccc(C(=O)N4CCN(C(=O)OCCOC(C)=O)CC4)c3C2)ccc1O [Compound 305]  3.1
6. COC1CCN(CCC(C)(C)c2ccccc2)CC1 [Compound 310]  3.2
7. COC(=O)N1CCN(C(=O)c2cccc3c2CN(C(C)(C)CCc2ccc(O)c(OC)c2)C3)CC1 [Compound 272]  3.35
8. CC(C)=CC(CC(C)(C)c1ccccc1)N1CCNC(=O)C1 (stereo not drawn) [Compound 227]  3.38
9. COC(=O)C1CCN(CCC(C)(C)c2ccccc2)CC1 [Compound 295]  3.45
10. CC(C)(CCN1CCC(CO)CC1)c1ccc(Cl)cc1 [Compound 283]  3.62
11. COC(=O)C1CCCN1CCC(C)(C)c1ccc(F)cc1 (stereo not drawn) [Compound 320]  3.62
12. COC[C@@H]1CCCN1CCC(C)(C)c1ccccc1 [Compound 302]  3.65
13. COC[C@H]1CCCN1CCC(C)(C)c1ccccc1 [Compound 300]  3.65
14. COCCNC(C=C(C)C)C(C)(C)Oc1ccc(F)cc1 (stereo not drawn) [Compound 174]  3.67
15. COc1cc(CCC(C)(C)N2Cc3cccc(C(=O)N4CCN(C(=O)[C@@H](Cc5ccccc5)NC(C)=O)CC4)c3C2)ccc1O [Compound 280]  3.85
16. CC(C)=CC(CC(C)(C)c1ccc(N2CCOCC2)cc1)N1CCC(O)CC1 (stereo not drawn) [Compound 150]  3.86
17. CC(C)(CCN1CCC(CCO)CC1)c1ccc(Cl)cc1 [Compound 284]  3.98
18. COC(=O)C1CCN(CCC(C)(C)c2ccc(Cl)cc2)CC1 [Compound 291]  4.06
19. CC(C)=CC(CC(C)(C)c1ccc(C(F)(F)F)cc1)N1CCN(S(=O)(=O)N(C)C)CC1 (stereo not drawn) [Compound 207]  4.09
20. CC(C)=CC(CC(C)(C)c1ccc(C(F)(F)F)cc1)N1CCNC(=O)C1 (stereo not drawn) [Compound 206]  4.26
21. COC[C@H]1CCCN1CCC(C)(C)c1ccc(Cl)cc1 [Compound 298]  4.26
22. CCOC(=O)C1CCN(CCC(C)(C)c2ccc(Cl)cc2)CC1 [Compound 287]  4.41
23. COCCCC1CCN(CCC(C)(C)c2ccccc2)CC1 [Compound 325]  4.47
24. COC[C@H]1CCCN1CCC(C)(C)c1ccc(C(F)(F)F)cc1 [Compound 312]  4.53
25. CC(C)=CC(CC(C)(C)c1ccc(OC(C)C)cc1)N1CCC(O)CC1 (stereo not drawn) [Compound 178]  4.59
26. CC(C)=CC(NCC1CCOCC1)C(C)(C)Oc1ccc(Cl)cc1 (stereo not drawn) [Compound 165]  4.6
27. COCCCC1CCN(CCC(C)(C)c2ccc(F)cc2)CC1 [Compound 321]  4.61
28. COC1CCN(C(C=C(C)C)CC(C)(C)c2ccccc2)CC1 (stereo not drawn) [Compound 202]  4.62
29. COCCCC1CCN(C(C=C(C)C)COc2ccc(F)cc2)CC1 (stereo not drawn) [Compound 190]  4.63
30. CCOC(=O)C1CCN(CCC(C)(C)c2ccc(C(F)(F)F)cc2)CC1 [Compound 311]  4.69
31. CC(C)=CC(NCC(C)C)C(C)(C)Oc1ccccc1 (stereo not drawn) [Compound 173]  4.81
32. CC(C)(CCN1CCC(O)(c2ccccc2)CC1)c1ccc(Cl)cc1 [Compound 285]  4.81
33. CCOC(=O)C1CCN(C(C)CC(C)(C)c2ccc(Cl)cc2)CC1 (stereo not drawn) [Compound 268]  4.83
34. CCOC(=O)N1CCN(C(C=C(C)C)CC(C)(C)c2ccc(F)cc2)CC1 (stereo not drawn) [Compound 196]  4.85
35. COCCOCCC1CCN(CCC(C)(C)c2ccc(C(F)(F)F)cc2)CC1 [Compound 314]  4.85
36. COC[C@@H]1CCCN1C(C)CC(C)(C)c1ccc(C(F)(F)F)cc1 (stereo partly drawn) [Compound 276]  4.95
37. CC(C)=C[C@H](CC(C)(C)c1ccc(Cl)cc1)N1CCC[C@@H]1CO [Compound 240]  5.04
38. COCCCC1CCN(CCC(C)(C)c2ccc(Cl)cc2)CC1 [Compound 324]  5.07
39. CC(C)=C[C@@H](CC(C)(C)c1ccc(C(F)(F)F)cc1)N1CCC(C)(O)CC1 [Compound 266]  5.13
40. COC[C@H]1CCCN1C(C=C(C)C)CC(C)(C)c1ccc(F)cc1 (stereo partly drawn) [Compound 251]  5.22
41. CCOC(=O)C1CCN(C(C=C(C)C)CC(C)(C)c2ccccc2)CC1 (stereo not drawn) [Compound 278]  5.23
42. CC(C)=CC(CC(C)(C)c1ccc(S(C)(=O)=O)cc1)N1CCC(C(C)C)CC1 (stereo not drawn) [Compound 89]  5.37
43. CC(C)=CC(CC(C)(C)c1ccccc1)N1CCC(O)(c2ccccc2)CC1 (stereo not drawn) [Compound 220]  5.62
44. COc1ccc(C(C)(C)CC(c2ccccc2)N2CCCCC2)cc1 (stereo not drawn) [Compound 116]  5.71
45. COCCCC1CCN(C(C=C(C)C)CC(C)(C)c2ccc(N3CCOCC3)cc2)CC1 (stereo not drawn) [Compound 140]  5.78
46. CCOC(=O)C1CCN(C(C=C(C)C)CC(C)(C)c2ccc(Cl)cc2)CC1 (stereo not drawn) [Compound 248]  5.84
47. COC[C@@H]1CCCN1C(C=C(C)C)CC(C)(C)c1ccc(C(F)(F)F)cc1 (stereo partly drawn) [Compound 275]  5.95
48. CC(C)=CC(CC(C)(C)c1ccc(Cl)cc1)N1CCC(OC(C)C)CC1 (stereo not drawn) [Compound 158]  5.99
49. CCOC(=O)C1CCN(C(C=C(C)C)CC(C)(C)c2ccc(C(F)(F)F)cc2)CC1 (stereo not drawn) [Compound 286]  6.11
50. CC(C)=CC(CC(C)(C)c1ccc(OC(C)(C)C)cc1)N1CCC2(CCOCC2)CC1 (stereo not drawn) [Compound 168]  6.17
51. CC(C)=CC(CC(C)(C)c1ccc(Cl)cc1)N1CCN(C(=O)c2ccccc2)CC1 (stereo not drawn) [Compound 157]  6.19
52. CC(C)=CC(CC(C)(C)c1ccc(Cl)cc1)N1CCC(O)(c2ccccc2)CC1 (stereo not drawn) [Compound 211]  6.23
53. COCCOCCC1CCN([C@H](C=C(C)C)CC(C)(C)c2ccc(C(F)(F)F)cc2)CC1 [Compound 263]  6.28
54. CC(C)=CC(CC(C)(C)c1ccc(Cl)cc1)N1CCC(c2ccnc(N(C)C)c2)CC1 (stereo not drawn) [Compound 90]  7.02
55. CCCCC1(OC(=O)NC(C)C)CCN(C(C=C(C)C)CC(C)(C)c2ccc(C(F)(F)F)cc2)CC1 (stereo not drawn) [Compound 216]  7.65
